{
  "source": "paper PMC12717099",
  "about": "“Peptidoglycan recruitment by a penicillin binding protein” (Nature Communications, 2025)",
  "key": {"[1]": {"test_system": "E. faecium D344SRF pCWR624Δpbp5_pbp5_V2", "test": "Disk diffusion assay, pbp5_V2", "assay_type": "cell-based, Enterococcus faecium", "details": "strain pbp5_V2 (N523A_Q627A); 37 °C, 24 h; n=3", "protocol": "(§1) The synthetic genes were purchased from GeneWiz (South Plainfield, NJ). The ribosome binding site sequence AGGAGG (Shine-Dalgarno), and a string of five A’s followed by the sequence […], that corresponds to the first 15 bp found in pbp5 from E. faecium C68 were added upstream of the START codon. The terminator sequence […] was added downstream of the STOP codon. BamHI restriction sites were added to the flanking 5′ and 3′ ends. The synthetic genes were inserted into the vector pCWR624Δpbp5. This vector was derived from pCWR624[10], in which the pbp5 gene from D366 was excised by digestion with BamHI followed by re-ligation of the vector, allowing subsequent insertion of modified synthetic pbp5s into the BamHI site downstream of ftsWEfm and psr from E. faecium C68[10]. The synthetic genes were inserted in a BamHI site located downstream of psr. The proper orientation was confirmed by PCR amplification using the forward primer OR_pbp5_FOR_1 (5′-[…]-3′) and the reverse primer OR_pbp5_REV_1 (5′-[…]-3′). Plasmids were sequence verified for the specific binding site mutations. The resulting constructions were electroporated into the natural pbp5(-) mutant E. faecium D344SRF with a selection on brain heart infusion agar (BHI) plates containing kanamycin (1500 µg/ml).\n(§2) E. faecium strains were streaked fresh from −80 °C stored glycerol stocks onto brain heart infusion (BHI) agar plates and incubated for 18 h at 37 °C. Strains harboring the plasmid derivatives were grown under antibiotic pressure on agar plates containing kanamycin at 1500 µg/ml. A single colony was inoculated into BHI or BHI-kanamycin (1500 µg/ml) for overnight cultures (18 h).\n(§3) Antibiotic disks used were manufactured by BD BBL^TM. Disk diffusion assays were performed according to the Clinical and Laboratory Standards Institute (CLSI) guidance. Overnight cultures were inoculated into 3 ml of BHI or BHI-kanamycin (1500 µg/ml) broth with a dilution of 1:100 and incubated until an OD600 of ~0.5 was reached. […] The plates were incubated at 37 °C and the zones of inhibition were measured after 24 h. […]"}, "[2]": {"test_system": "E. faecium D344SRF, Wild Type", "assay_type": "cell-based, Enterococcus faecium", "details": "strain Wild Type; disks Ampicillin 10 μg, Penicillin 10 U, Ceftriaxone 30 μg; BHI agar, 37 °C, 24 h; n=3", "protocol": "as §2\nAntibiotic disks used were manufactured by BD BBL^TM. Disk diffusion assays were performed according to the Clinical and Laboratory Standards Institute (CLSI) guidance. Overnight cultures were inoculated into 3 ml of BHI or BHI-kanamycin (1500 µg/ml) broth with a dilution of 1:100 and incubated until an OD600 of ~0.5 was reached. The OD600 was adjusted to 0.01 to get the inoculum suspension. […] The plates were incubated at 37 °C and the zones of inhibition were measured after 24 h. All experiments were conducted in triplicate."}, "[3]": {"test_system": "E. faecium D344SRF pCWR624Δpbp5_pbp5_V4", "test": "Disk diffusion assay, pbp5_V4", "assay_type": "cell-based, Enterococcus faecium", "details": "strain pbp5_V4 (D530A_L533A_W457A); 37 °C, 24 h; n=3", "protocol": "as §1, §2, §3"}, "[4]": {"test_system": "E. faecium D344SRF pCWR624Δpbp5 (empty plasmid)", "test": "Disk diffusion assay, pCWR624Δpbp5", "assay_type": "cell-based, Enterococcus faecium", "details": "strain pCWR624Δpbp5; 37 °C, 24 h; n=3", "protocol": "as §1, §2, §3"}, "[5]": {"test_system": "E. faecium D344SRF pCWR624Δpbp5_pbp5_V2", "test": "MIC by broth microdilution, pbp5_V2", "assay_type": "cell-based, Enterococcus faecium", "details": "strain pbp5_V2 (N523A_Q627A); 37 °C, 20 h; n=3", "protocol": "as §2"}, "[6]": {"test_system": "PBP5:ceftaroline complex (1:8)", "test": "NMR CSP titration of SP2 into ceftaroline-saturated PBP5", "assay_type": "binding, Enterococcus faecium", "details": "PBP5:ceftaroline 1:8", "protocol": "Data was processed using Topspin 4.1.4 (Bruker) and analyzed using NMRFAM-SPARKY 1.3 and Poky (build number 20240829)[20],[21]. The sequence-specific backbone assignment of PBP5 is publicly available at BMRBID 51690.\nSPs (SP1 to SP7) were titrated into 0.5 mM (^2H,^15N)-labeled and 0.1 mM (^2H,^15N)/^13C ILV labeled PBP5 at molar ratios of 0:1, 5:1, 10:1, 20:1, 40:1, 60:1, and 80:1 (stem peptide/SP:PBP5; molar ratios). 2D [^1H,^15N] TROSY or 2D [^1H,^13C] HMQC spectra were recorded for each titration point. SPs were solubilized in NMR buffer. Chemical shift perturbations (Δδ) between PBP5 and SP bound PBP5 spectra were calculated using Eq. 1,1 Δδppm=ΔδH^2+ΔδX/Y^2 where, X is ^15N or ^13C and Y is the constant i.e., 10 for ^15N and 4 for ^13C.\nResidues with significant CSPs were identified by calculating the standard deviation of all CSPs (σ), then excluding any CSPs larger than average+2σ, recalculating σ as a new corrected σ0, and then repetitively removing CSPs above 2σ0 until no additional CSPs can be removed. CSPs above ≥2σ2 was the statistical threshold for ^1H/^15N backbone CSP analysis and ≥2xσ1 for ^1H/^13C methyl ILV data for the interaction of SP1 with PBP5. The same threshold values were used for all other peptides to allow for direct comparison with the SP1/PBP5 interaction. […]"}, "PBP5-S422A": {"test_system": "PBP5-S422A", "test": "1D 1H STD NMR of SP2 with PBP5-S422A", "assay_type": "binding, Enterococcus faecium", "details": "for STD amplification factor, 2000: 2 s saturation", "description": "Total saturation time for STD measurements was 2 s.\nOverlapped peaks were completely excluded from the analysis."}},
  "data": [
    {"compound": "CO/N=C(\\C(=O)N[C@@H]1C(=O)N2C(C(=O)O)=C(CSc3nc(=O)c(=O)[nH]n3C)CS[C@H]12)c1csc(N)n1", "note": "[Ceftriaxone, ceftriaxone]", "values": [
      {"measurement": "Zone Size (mm) [Range]", "setting": "[1]", "value": "24 [24-26] mm"},
      {"measurement": "Zone Size (mm) [Range]", "setting": "[2]", "value": "20 [20-26] mm"},
      {"measurement": "Zone Size (mm) [Range]", "setting": "[3]", "value": "26 [26-28] mm"},
      {"measurement": "Zone Size (mm) [Range]", "setting": "[4]", "value": "24 [22-28] mm"},
      {"measurement": "MIC (µg/ml) [Range]", "setting": "[5]", "value": "50 [50-100] µg/ml"}
    ]},
    {"compound": "D-Lac-L-Ala-D-iGln-L-Lys(D-iAsn) [SP2]", "values": [
      {"measurement": "CSPs with ceftaroline-saturated PBP5 vs β-lactam free and PenG-saturated PBP5, in words", "setting": "[6]", "value": "virtually identical"},
      {"measurement": "STD % to SP1", "setting": "PBP5-S422A; 1H DLacβ", "value": 42.7391, "unit": "%"},
      {"measurement": "STD amplification factor as fraction of highest SP1:PBP5 value", "setting": "PBP5-S422A; 1H DLacβ", "value": 0.4274},
      {"measurement": "STD amplification factor, 2000", "setting": "PBP5-S422A; 1H DLacβ", "value": 11.5004},
      {"measurement": "STD % to SP1", "setting": "PBP5-S422A; 1H DQ2β (first listed)", "value": 84.4303, "unit": "%"},
      {"measurement": "STD amplification factor as fraction of highest SP1:PBP5 value", "setting": "PBP5-S422A; 1H DQ2β (first listed)", "value": 0.8443},
      {"measurement": "STD amplification factor, 2000", "setting": "PBP5-S422A; 1H DQ2β (first listed)", "value": 22.7188},
      {"measurement": "STD % to SP1", "setting": "PBP5-S422A; 1H DQ2β (second listed)", "value": 106.599, "unit": "%"},
      {"measurement": "STD amplification factor as fraction of highest SP1:PBP5 value", "setting": "PBP5-S422A; 1H DQ2β (second listed)", "value": 1.066},
      {"measurement": "STD amplification factor, 2000", "setting": "PBP5-S422A; 1H DQ2β (second listed)", "value": 28.6841},
      {"measurement": "STD % to SP1", "setting": "PBP5-S422A; 1H DQ2γ", "value": 33.2164, "unit": "%"},
      {"measurement": "STD amplification factor as fraction of highest SP1:PBP5 value", "setting": "PBP5-S422A; 1H DQ2γ", "value": 0.3322},
      {"measurement": "STD amplification factor, 2000", "setting": "PBP5-S422A; 1H DQ2γ", "value": 8.938},
      {"measurement": "STD % to SP1", "setting": "PBP5-S422A; 1H K3α", "value": 52.4105, "unit": "%"},
      {"measurement": "STD amplification factor as fraction of highest SP1:PBP5 value", "setting": "PBP5-S422A; 1H K3α", "value": 0.5241},
      {"measurement": "STD amplification factor, 2000", "setting": "PBP5-S422A; 1H K3α", "value": 14.1028},
      {"measurement": "STD % to SP1", "setting": "PBP5-S422A; 1H K3β", "value": 115.403, "unit": "%"},
      {"measurement": "STD amplification factor as fraction of highest SP1:PBP5 value", "setting": "PBP5-S422A; 1H K3β", "value": 1.154},
      {"measurement": "STD amplification factor, 2000", "setting": "PBP5-S422A; 1H K3β", "value": 31.053},
      {"measurement": "STD % to SP1", "setting": "PBP5-S422A; 1H K3γ", "value": 71.5712, "unit": "%"},
      {"measurement": "STD amplification factor as fraction of highest SP1:PBP5 value", "setting": "PBP5-S422A; 1H K3γ", "value": 0.7157},
      {"measurement": "STD amplification factor, 2000", "setting": "PBP5-S422A; 1H K3γ", "value": 19.2587},
      {"measurement": "STD % to SP1", "setting": "PBP5-S422A; 1H K3δ", "value": 86.8848, "unit": "%"},
      {"measurement": "STD amplification factor as fraction of highest SP1:PBP5 value", "setting": "PBP5-S422A; 1H K3δ", "value": 0.8688},
      {"measurement": "STD amplification factor, 2000", "setting": "PBP5-S422A; 1H K3δ", "value": 23.3793},
      {"measurement": "STD % to SP1", "setting": "PBP5-S422A; 1H K3ε", "value": 15.5454, "unit": "%"},
      {"measurement": "STD amplification factor as fraction of highest SP1:PBP5 value", "setting": "PBP5-S422A; 1H K3ε", "value": 0.1555},
      {"measurement": "STD amplification factor, 2000", "setting": "PBP5-S422A; 1H K3ε", "value": 4.183},
      {"measurement": "STD % to SP1", "setting": "PBP5-S422A; 1H LA1α", "value": 31.0506, "unit": "%"},
      {"measurement": "STD amplification factor as fraction of highest SP1:PBP5 value", "setting": "PBP5-S422A; 1H LA1α", "value": 0.3105},
      {"measurement": "STD amplification factor, 2000", "setting": "PBP5-S422A; 1H LA1α", "value": 8.355},
      {"measurement": "STD % to SP1", "setting": "PBP5-S422A; 1H LA1β", "value": 44.3762, "unit": "%"},
      {"measurement": "STD amplification factor as fraction of highest SP1:PBP5 value", "setting": "PBP5-S422A; 1H LA1β", "value": 0.4438},
      {"measurement": "STD amplification factor, 2000", "setting": "PBP5-S422A; 1H LA1β", "value": 11.9409},
      {"measurement": "STD % to SP1", "setting": "PBP5-S422A; 1H iNα,DQ2α", "value": 24.4286, "unit": "%"},
      {"measurement": "STD amplification factor as fraction of highest SP1:PBP5 value", "setting": "PBP5-S422A; 1H iNα,DQ2α", "value": 0.2443},
      {"measurement": "STD amplification factor, 2000", "setting": "PBP5-S422A; 1H iNα,DQ2α", "value": 6.573},
      {"measurement": "STD % to SP1", "setting": "PBP5-S422A; 1H iNβ", "value": 38.4337, "unit": "%"},
      {"measurement": "STD amplification factor as fraction of highest SP1:PBP5 value", "setting": "PBP5-S422A; 1H iNβ", "value": 0.3843},
      {"measurement": "STD amplification factor, 2000", "setting": "PBP5-S422A; 1H iNβ", "value": 10.3419}
    ]}
  ]
}
